Experimental findings from patent publication US8153797B2, “Chromen-2-one derivatives and their use as monoamine neurotransmitter re-uptake inhibitors” (Neurosearch A/S, priority 2006, dated 2012) are described below.

Data set [1] has as its target T1, reuptake of serotonine (5-HT) in synaptosomes (Rattus norvegicus, UniProt P31652).
T1 construct: in synaptosomes as described in WO 97/16451; from tissue; method in WO 97/16451
Nature of the data set: Inhibition of serotonin reuptake in synaptosomes. Format: biochemical. Here is the method:
A number of compounds were tested for their ability to inhibit the reuptake of the monoamine neurotransmitters dopamine (DA) noradrenaline (NA) and serotonine (5-HT) in synaptosomes as described in WO 97/16451.
The test values are given as IC50 (the concentration (μM) of the test substance which inhibits the specific binding of ^3H-DA, ^3H-NA, or ^3H-5-HT by 50%).

Data set [2] has as its target T2, reuptake of dopamine (DA) in synaptosomes (Rattus norvegicus, UniProt P23977).
T2 construct: in synaptosomes as described in WO 97/16451; from tissue; method in WO 97/16451
Nature of the data set: Inhibition of dopamine reuptake in synaptosomes. Format: biochemical.

The target in data set [3] is T3, reuptake of noradrenaline (NA) in synaptosomes (Rattus norvegicus, UniProt Q63380).
T3 construct: in synaptosomes as described in WO 97/16451; from tissue; method in WO 97/16451
Nature of the data set: Inhibition of noradrenaline reuptake in synaptosomes. Format: biochemical.

[4] abbreviates: 3H-5-HT, synaptosomes, read-out: 5-HT-uptake IC50.

Structures can show the parent of a compound that is named as a salt. Where two headings read alike, the source gives them in different places.

T3 sequence (Q63380 1-617): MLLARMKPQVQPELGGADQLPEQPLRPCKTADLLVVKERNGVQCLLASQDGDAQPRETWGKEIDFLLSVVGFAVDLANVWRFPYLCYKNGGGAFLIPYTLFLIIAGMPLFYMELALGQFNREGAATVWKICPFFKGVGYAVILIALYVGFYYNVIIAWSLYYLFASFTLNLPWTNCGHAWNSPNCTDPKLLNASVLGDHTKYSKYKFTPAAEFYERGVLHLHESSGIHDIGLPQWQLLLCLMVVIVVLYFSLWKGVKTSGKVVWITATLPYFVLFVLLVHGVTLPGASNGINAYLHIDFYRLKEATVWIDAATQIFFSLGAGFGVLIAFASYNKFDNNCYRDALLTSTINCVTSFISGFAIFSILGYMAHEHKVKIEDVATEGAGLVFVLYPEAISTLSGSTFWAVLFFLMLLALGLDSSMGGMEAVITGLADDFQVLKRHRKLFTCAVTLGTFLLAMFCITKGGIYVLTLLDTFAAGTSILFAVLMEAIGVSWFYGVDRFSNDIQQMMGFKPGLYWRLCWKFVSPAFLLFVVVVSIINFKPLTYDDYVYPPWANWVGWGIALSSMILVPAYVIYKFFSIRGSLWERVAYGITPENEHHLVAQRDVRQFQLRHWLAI
T1 sequence (P31652 whole entry): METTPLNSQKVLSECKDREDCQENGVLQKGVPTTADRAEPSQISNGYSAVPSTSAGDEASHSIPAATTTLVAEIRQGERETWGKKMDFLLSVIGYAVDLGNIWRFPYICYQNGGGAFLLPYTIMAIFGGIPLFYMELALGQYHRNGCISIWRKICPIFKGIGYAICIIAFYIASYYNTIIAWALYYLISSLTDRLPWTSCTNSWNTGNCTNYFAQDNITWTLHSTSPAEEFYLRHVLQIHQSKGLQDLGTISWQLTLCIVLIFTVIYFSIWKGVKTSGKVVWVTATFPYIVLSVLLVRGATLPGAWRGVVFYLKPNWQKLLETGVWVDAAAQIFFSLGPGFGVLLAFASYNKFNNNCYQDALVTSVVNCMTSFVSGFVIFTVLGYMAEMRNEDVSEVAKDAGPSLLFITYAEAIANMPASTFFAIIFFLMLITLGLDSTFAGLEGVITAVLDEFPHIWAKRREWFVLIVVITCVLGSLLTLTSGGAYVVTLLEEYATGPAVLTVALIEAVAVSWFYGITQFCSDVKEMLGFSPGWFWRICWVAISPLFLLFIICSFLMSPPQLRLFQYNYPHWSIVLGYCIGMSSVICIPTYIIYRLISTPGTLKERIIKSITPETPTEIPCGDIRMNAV
T2 sequence (P23977 whole entry): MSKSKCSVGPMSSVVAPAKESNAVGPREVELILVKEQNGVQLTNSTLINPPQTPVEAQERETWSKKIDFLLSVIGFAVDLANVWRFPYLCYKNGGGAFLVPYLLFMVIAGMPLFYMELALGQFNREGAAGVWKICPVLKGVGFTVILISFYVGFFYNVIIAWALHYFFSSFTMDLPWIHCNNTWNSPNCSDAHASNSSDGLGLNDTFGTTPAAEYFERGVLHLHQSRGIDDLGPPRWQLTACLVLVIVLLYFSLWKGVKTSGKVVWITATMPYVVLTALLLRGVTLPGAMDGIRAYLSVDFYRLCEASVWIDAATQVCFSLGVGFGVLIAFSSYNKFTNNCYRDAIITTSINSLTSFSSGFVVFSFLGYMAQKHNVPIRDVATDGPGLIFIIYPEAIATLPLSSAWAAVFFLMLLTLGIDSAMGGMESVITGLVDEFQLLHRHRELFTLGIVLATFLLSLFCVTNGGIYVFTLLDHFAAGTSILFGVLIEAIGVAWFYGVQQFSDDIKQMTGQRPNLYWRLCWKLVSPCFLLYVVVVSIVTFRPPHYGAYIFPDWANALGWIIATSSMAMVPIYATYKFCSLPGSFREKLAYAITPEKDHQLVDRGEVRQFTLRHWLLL

For the molecule `CN1[C@@H]2C=C[C@H]1C[C@H](Oc1ccc3ccc(=O)oc3c1)C2` [First compound of Method 4B, exo-7-(8-Methyl-8-aza-bicyclo[3.2.1]oct-6-en-3-yloxy)-chromen-2-one hydrochloric acid salt], the results for the 50% inhibitory concentration (IC50) in data set [1], in data set [2] and in data set [3] were 36 nM, 700 nM and 720 nM, respectively.
With `O=c1oc2cc(O[C@@H]3C[C@H]4CC[C@@H](C3)N4)ccc2cc1Cl` [Second last compound of Method 2B, exo-7-(8-Aza-bicyclo[3.2.1]oct-3-yloxy)-3-chloro-chromen-2-one hydrochloric acid salt], the IC50 came out at 0.59 nM in data set [1] (setting [4]), 54 nM in data set [2] and 14 nM in data set [3].
In turn, `CN1[C@@H]2C=C[C@H]1C[C@H](Oc1ccc3ccc(=O)oc3c1)C2` (as salt: hydrochloric acid salt) [First compound of Method 4B, exo-7-(8-Methyl-8-aza-bicyclo[3.2.1]oct-6-en-3-yloxy)-chromen-2-one hydrochloric acid salt] registered a melting point of over 275 °C.
For the molecule `CN1[C@@H]2CC[C@H]1C[C@H](Oc1ccc3cc(Br)c(=O)oc3c1)C2` [First compound of Method 2B, exo-3-Bromo-7-(8-methyl-8-aza-bicyclo[3.2.1]oct-3-yloxy)-chromen-2-one hydrochloric acid salt], the IC50 in data set [1] (setting [4]) is 1.2 nM; in data set [2] (3H-DA, synaptosomes, read-out: DA-uptake IC50), 44 nM; in data set [3] (3H-NA, synaptosomes, read-out: NA-uptake IC50), 17 nM.

The term IC50 denotes the midpoint of a concentration-inhibition curve. Broadly, the melting point is the temperature of the solid-liquid transition.
